Assay results from the supplement of paper PMC10883282.
Counter-ions that a name gives are not always drawn. ± gives the standard deviation of the averaged measurements.

Test system: KHOS-NP
Test: relative viability vs DMSO control (72 h) (fraction); higher = more viable cells
Outline: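 Sarcoma cell lines were seeded in 384-well plates at densities set to reach 80–90% confluence. After 24 h, 2.5 µl of serially diluted compound was added (source plates 10 mM to 0.0002 mM), and plates were held 72 h at 37 °C, 5% CO2, with 0.1% DMSO vehicle and a 5 µM positive control. Relative viability came from ATPLite readings as percent growth, averaged over up to triplicate wells. Data were rescaled so full viability equals 1 and none equals 0.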

Row | Compound | relative viability (0.00017 µM) | relative viability (0.00051 µM) | relative viability (0.00152 µM) | relative viability (0.00457 µM) | relative viability (0.01372 µM) | relative viability (0.04115 µM) | relative viability (0.1235 µM) | relative viability (0.3704 µM) | relative viability (1.111 µM) | relative viability (3.333 µM) | relative viability (10 µM)
1 | CC[C@H](Nc1ncnc2[nH]cnc12)c1nc2cccc(F)c2c(=O)n1-c1ccccc1 [Idelalisib] | 1.117 ± 0.0096 | 1.12 ± 0.017 | 1.12 ± 0.022 | 1.105 ± 0.01 | 1.11 ± 0.041 | 1.11 ± 0.025 | 1.1 ± 0.046 | 1.1 ± 0.024 | 1.085 ± 0.0061 | 1.06 ± 0.043 | 1.04 ± 0.019
2 | COc1cccc2c1C(=O)c1c(O)c3c(c(O)c1C2=O)C[C@@](O)(C(=O)CO)C[C@@H]3O[C@H]1C[C@H](N)[C@H](O)[C@H](C)O1 [Doxorubicin Hydrochloride] | 1.09 ± 0.024 | 1.08 ± 0.04 | 1.07 ± 0.042 | 1.07 ± 0.0061 | 1.02 ± 0.062 | 1.04 ± 0.033 | 0.814 ± 0.038 | 0.475 ± 0.029 | 0.266 ± 0.014 | 0.0899 ± 0.0038 | 0.058 ± 0.0052
3 | Cc1ccc(NC(=O)c2ccc(CN3CCN(C)CC3)cc2)cc1Nc1nc(-c2cccnc2)cs1 [Masitinib] | 1.05 ± 0.026 | 1.05 ± 0.035 | 1.089 ± 0.0014 | 1.083 ± 0.01 | 1.06 ± 0.028 | 1.09 ± 0.025 | 1.04 ± 0.052 | 1.01 ± 0.024 | 0.857 ± 0.018 | 0.612 ± 0.051 | 0.185 ± 0.0074
4 | Cn1cnc2c(F)c(Nc3ccc(Br)cc3F)c(C(=O)NOCCO)cc21 [Binimetinib] | 1.06 ± 0.034 | 1.09 ± 0.015 | 1.081 ± 0.004 | 1.097 ± 0.0049 | 1.06 ± 0.045 | 0.943 ± 0.075 | 0.857 ± 0.012 | 0.802 ± 0.066 | 0.425 ± 0.015 | 0.291 ± 0.016 | 0.276 ± 0.012
5 | CC(=O)Nc1cccc(-n2c(=O)n(C3CC3)c(=O)c3c(Nc4ccc(I)cc4F)n(C)c(=O)c(C)c32)c1 [Trametinib] | 1.08 ± 0.012 | 1.09 ± 0.014 | 1.05 ± 0.019 | 0.975 ± 0.048 | 0.532 ± 0.055 | 0.312 ± 0.013 | 0.278 ± 0.0054 | 0.275 ± 0.011 | 0.256 ± 0.0076 | 0.25 ± 0.014 | 0.231 ± 0.02
6 | Cc1cc(Nc2ncnc3ccc(NC4=NC(C)(C)CO4)cc23)ccc1Oc1ccn2ncnc2c1 [Tucatinib] | 1.09 ± 0.023 | 1.14 ± 0.021 | 1.13 ± 0.014 | 1.11 ± 0.029 | 1.09 ± 0.018 | 1.09 ± 0.025 | 1.12 ± 0.017 | 1.1 ± 0.017 | 1.12 ± 0.016 | 1.09 ± 0.02 | 1.11 ± 0.014
7 | CCN1CCN(Cc2ccc(Nc3ncc(F)c(-c4cc(F)c5nc(C)n(C(C)C)c5c4)n3)nc2)CC1 [Abemaciclib] | 1.04 ± 0.032 | 1.02 ± 0.029 | 1.02 ± 0.018 | 1.03 ± 0.017 | 1.033 ± 0.0059 | 1.033 ± 0.01 | 1.04 ± 0.014 | 1.055 ± 0.0084 | 1.01 ± 0.048 | 0.753 ± 0.036 | 0.6015 ± 0.0059
8 | Cc1nc(-c2cn3c(n2)-c2ccc(-c4cnn(C(C)(C)C(N)=O)c4)cc2OCC3)n(C(C)C)n1 [Taselisib] | 1.04 ± 0.023 | 1.039 ± 0.003 | 1.03 ± 0.03 | 1.02 ± 0.018 | 1.042 ± 0.0077 | 1.01 ± 0.023 | 1.02 ± 0.02 | 1.03 ± 0.022 | 0.99 ± 0.035 | 0.948 ± 0.011 | 0.688 ± 0.0095
9 | C[C@@H]1COCCN1c1cc(-c2ccnn2C)c2ccnc(-c3ccn[nH]3)c2n1 | 1.07 ± 0.036 | 1.07 ± 0.012 | 1.07 ± 0.025 | 1.06 ± 0.029 | 1.06 ± 0.02 | 1.09 ± 0.026 | 1 ± 0.037 | 0.898 ± 0.025 | 0.538 ± 0.042 | 0.377 ± 0.0063 | 0.281 ± 0.026
10 | CO[C@H]1C[C@@H]2CC[C@@H](C)[C@@](O)(O2)C(=O)C(=O)N2CCCC[C@H]2C(=O)O[C@H]([C@H](C)C[C@@H]2CC[C@@H](OP(C)(C)=O)[C@H](OC)C2)CC(=O)[C@H](C)/C=C(\C)[C@@H](O)[C@@H](OC)C(=O)[C@H](C)C[C@H](C)/C=C/C=C/C=C/1C [Ridaforolimus] | 1.11 ± 0.033 | 1.1 ± 0.011 | 1.09 ± 0.015 | 1.1 ± 0.016 | 1.08 ± 0.03 | 1.08 ± 0.033 | 1.07 ± 0.033 | 1.06 ± 0.045 | 1.07 ± 0.026 | 1.02 ± 0.032 | 1.01 ± 0.02
11 | CCc1cc2c(cc1N1CCC(N3CCOCC3)CC1)C(C)(C)c1[nH]c3cc(C#N)ccc3c1C2=O [Alectinib] | 1.07 ± 0.032 | 1.09 ± 0.031 | 1.082 ± 0.0076 | 1.08 ± 0.011 | 1.08 ± 0.013 | 1.089 ± 0.0044 | 1.09 ± 0.021 | 1.074 ± 0.0034 | 1.06 ± 0.026 | 1.05 ± 0.01 | 1.04 ± 0.044
12 | COCc1c(-c2cc3cc(C)cc(OC)c3s2)c2c(N)ncnn2c1CN1CCNC(=O)C1 [Rogaratinib] | 1.09 ± 0.019 | 1.1 ± 0.014 | 1.08 ± 0.012 | 1.09 ± 0.0024 | 1.08 ± 0.032 | 1.06 ± 0.016 | 1.06 ± 0.018 | 1.06 ± 0.017 | 1.09 ± 0.023 | 1.04 ± 0.09 | 0.877 ± 0.031
13 | C[C@@H]1CCN(C(=O)CC#N)C[C@@H]1N(C)c1ncnc2[nH]ccc12 [Tofacitinib] | 1.08 ± 0.037 | 1.092 ± 0.01 | 1.08 ± 0.031 | 1.09 ± 0.036 | 1.05 ± 0.034 | 1.07 ± 0.053 | 1.06 ± 0.049 | 1.05 ± 0.029 | 1.03 ± 0.011 | 1.02 ± 0.051 | 0.941 ± 0.015
14 | O=C(Cc1ccc(-c2ccc(OCCN3CCOCC3)cc2)cn1)NCc1ccccc1 [KX2-391] | 1.106 ± 0.0028 | 1.11 ± 0.033 | 1.11 ± 0.031 | 1.11 ± 0.036 | 1.09 ± 0.03 | 1.039 ± 0.01 | 0.586 ± 0.013 | 0.456 ± 0.026 | 0.378 ± 0.0089 | 0.376 ± 0.0087 | 0.364 ± 0.028
15 | C[C@@H](c1ccc2nccn2c1)n1nnc2ncc(-c3cnn(C)c3)nc21 [Volitinib] | 1.07 ± 0.012 | 1.09 ± 0.018 | 1.09 ± 0.013 | 1.091 ± 0.0095 | 1.08 ± 0.015 | 1.08 ± 0.024 | 1.07 ± 0.015 | 1.06 ± 0.038 | 1.04 ± 0.035 | 1.02 ± 0.011 | 0.8916 ± 0.004
16 | C[C@]1(O)C[C@@H](c2nc(-c3ccc4ccc(-c5ccccc5)nc4c3)c3c(N)nccn32)C1 [Linsitinib] | 1.11 ± 0.025 | 1.09 ± 0.011 | 1.07 ± 0.025 | 1.08 ± 0.011 | 1.08 ± 0.026 | 1.08 ± 0.012 | 1.08 ± 0.029 | 1.07 ± 0.05 | 1.06 ± 0.064 | 1.02 ± 0.027 | 0.8696 ± 0.0082
17 | COc1cc2c(Oc3ccc4[nH]c(C)cc4c3F)ncnc2cc1OCCCN1CCCC1 [Cediranib] | 1.08 ± 0.025 | 1.11 ± 0.02 | 1.09 ± 0.013 | 1.08 ± 0.015 | 1.09 ± 0.018 | 1.09 ± 0.014 | 1.04 ± 0.027 | 1.07 ± 0.029 | 1.036 ± 0.0041 | 1.05 ± 0.016 | 1.03 ± 0.023
18 | CC(C)(C)c1cc(NC(=O)Nc2ccc(-c3cn4c(n3)sc3cc(OCCN5CCOCC5)ccc34)cc2)no1 [Quizartinib] | 1.13 ± 0.012 | 1.1 ± 0.027 | 1.1 ± 0.019 | 1.08 ± 0.035 | 1.096 ± 0.0028 | 1.09 ± 0.013 | 1.069 ± 0.0099 | 1.07 ± 0.034 | 1.05 ± 0.025 | 0.998 ± 0.067 | 0.99 ± 0.032
19 | COc1cc2/c(=N/c3ccc(Br)cc3F)nc[nH]c2cc1OCC1CCN(C)CC1 [Vandetanib] | 1.05 ± 0.032 | 1.036 ± 0.0034 | 1.04 ± 0.014 | 1.05 ± 0.018 | 1.05 ± 0.045 | 1.04 ± 0.029 | 1.05 ± 0.024 | 1.03 ± 0.015 | 1.02 ± 0.017 | 0.888 ± 0.044 | 0.551 ± 0.023
